The values below come from EP0816375A1, “GLYCOCONJUGATES OF OPIATED SUBSTANCES” (ROLABO SL, priority 1995, dated 1997).

The test system of one data set is Male Sprague-Dawley rats. Nature of the data set: antinociceptive tests: tail flick (tail immersion) test and paw pressure test. The class given is in vivo. The conditions noted are these: for degree of analgesia: intraperitoneally administered, codeine 5 mg/Kg compared with compound of example 26. The text has this:
The compounds of the invention may be compared with the unmodified parent opiates in standard antinociceptive tests, i.e. in terms of potency and duration of action. For example, phamacological tests may be effected to examine the effects of the compounds of the invention on suppressing pain associated to nocius stimuli induced in laboratory animals. Thus, these compounds can be tested by measuring the time treated animals are insensitive to a given painful stimuli.
In spite of the different classes among the compounds of the invention which can be appreciated in accordance to their chemical structure, all are pain-related substances and therefore can be examined on the tail immersion and paw pressure tests as follows.
Male Sprague-Dawley rats weighing 200 g are used. They are housed singly in a room with controlled temperature 21 °C on a 12h light-dark cycle and given free access to food and water.
The tail flick test, is conducted as described by D'Amour F.E. and Smith D.L. in A method for determining loss of pain sensations, J.Pharmacol. Exp. Ther. 72,74, 1941.
Mechanical nociceptive thresholds are determined by the paw pressure test on the left hind paw as described in the literature (Randall L.O. and Selito J.J. A method for measurement of analgesic activity on inflamed tissue, Arch. Int. Pharmacodyn. Ther. 1957, 11, 409-419.). Pain thresholds are measured with an analgesymeter. The apparatus is set up to apply a force of 0-1000 g increasing from zero at a rate of 64 g/s. The nociceptive threshold is taken as the point at which the rat vocalize or struggle vigorously.

The conditions of data set [1]: cited from earlier work; for analgesic activity: compared with the parent drug morphine.
For data set [2] the following is noted: blood of patients taking morphine; cited from earlier work.

With `CN1CC[C@]23c4c5ccc(O)c4O[C@H]2[C@@H](O)C=C[C@H]3[C@H]1C5` [morphine], the analgesia in the data set with Male Sprague-Dawley rats (rat, in vivo, ip, 5 mg/kg) is recorded as 65-75%.

For the compound `COc1ccc2c3c1O[C@H]1[C@@H](O[C@@H]4O[C@H](CO)[C@@H](O)[C@H](O)[C@H]4O)C=C[C@H]4[C@@H](C2)N(C)CC[C@@]341` [Example 26, 6-Codeinyl-β-D-glucopyranoside acetate], in the data set with Male Sprague-Dawley rats, the degree of analgesia entry is reported as “the same degree of analgesia”.

Consider `CN1CC[C@]23c4c5ccc(O[C@@H]6O[C@H](C(=O)O)[C@@H](O)[C@H](O)[C@H]6O)c4O[C@H]2[C@@H](O)C=C[C@H]3[C@H]1C5` [Example M3G, Morphine 3-glucuronide], for which, in the data set with Male Sprague-Dawley rats (intraperitoneal administration, dosis of 1 mg/Kg, same effect as morphine 5 mg/Kg), the analgesia is on record as 65-75%. Moreover, in data set [1], the analgesic activity entry is “not analgesic”. The “concentration in blood relative to morphine” value in data set [2] was “approximately 20 fold”.

On to `COc1ccc2c3c1O[C@H]1[C@@H](O)C=C[C@H]4[C@@H](C2)N(C)CC[C@@]341` [codeine], for which the degree of analgesia entry in the data set with Male Sprague-Dawley rats is listed as “the same degree of analgesia as compound of example 26”.

In the case of `CN1CC[C@]23c4c5ccc(O)c4O[C@H]2[C@@H](O[C@@H]2O[C@H](C(=O)O)[C@@H](O)[C@H](O)[C@H]2O)C=C[C@H]3[C@H]1C5` [Example M6G, Morphine 6-glucuronide], the analgesic activity result in data set [1] was “several times more active than the parent drug”. The “analgesic activity relative to morphine” value in data set [1] (injected intrathecally) was “much more active than morphine”. The “concentration in blood relative to morphine” value in data set [2] is on record as “two fold higher than morphine”.

Take `CCCCCCCCNC(=O)[C@H]1O[C@@H](Oc2ccc3c4c2O[C@H]2[C@@H](O)C=C[C@H]5[C@@H](C3)N(C)CC[C@@]452)[C@H](O)[C@@H](O)[C@@H]1O` [Example 1, 3-Morphinyl n-octyl-(β-D-glucopyranosyl)-uronamide acetate]: in the data set on Male Sprague-Dawley rats (intraperitoneal administration, dosis of 0.1 mg/Kg, maximal antinociceptive response), the analgesia was 100%.
